How the values were obtained:
MDA-MB-231 cells = assay: GRO-seq (global nuclear run-on), transcriptional response to JQ1; format: cell-based, Human; settings: 500 nM JQ1, 6 h vs 0.05% DMSO, FIG. 12K
Description: Cell culture. MDA-MB-231 breast cancer cells (HTB-26 ATCC) and MM.1S multiple myeloma cells were grown at 37° C. and 5% CO2. MDA-MB-231 cells were cultured in Dulbecco's Modified Eagle Medium (Thermo Fisher Sci.) supplemented with 10% fetal bovine serum. MM.1S cells were cultured in RPMI-1640 supplemented with 1% GlutaMAX (Thermo Fisher Sci.) and 10% fetal bovine serum. […] Drosophila S2 cells were cultured in Schneider's Drosophila Medium (Thermo Fisher Sci.) supplemented with 10% fetal bovine serum and 2 mM L-glutamine (Thermo Fisher Sci.), at ambient temperature in ambient CO2.
Functional perturbation of general enhancer activities. […] To quantify transcription activities in an unbiased manner, GRO-seq read densities were initially normalized using total uniquely-mapped read numbers to remove variations between libraries. To minimize the bias introduced by promoter pausing or gene length, only reads that were aligned within the 2 Kb region 1 Kb downstream from the TSS were selected to calculate the transcription activity. For multi-isoform genes, the transcript with highest read counts within the 2 Kb window was selected to represent the gene's transcription activity. Public datasets analyzed. The data of RNA Pol II ChIP-seq for MDA-MB-231 cells were obtained from European Genome-phenome Archive (www.ebi.ac.uk/ega). […]

MM.1S cells = settings: cited from earlier work

Cc1sc2c(c1C)C(c1ccc(Cl)cc1)=N[C@@H](CC(=O)OC(C)(C)C)c1nnc(C)n1-2 [JQ1]
transcriptional response to JQ1 (GRO-seq): genes associated with top 10% vs bottom 10% RNA-decorated enhancers (MDA-MB-231 cells): The same conclusions were reached
response of gene expression to JQ1: genes associated with at least one super-enhancer vs only typical enhancers (MM.1S cells; GRID-seq inferred connectivity within 50 Kb range, same without range, FIG. 14E, F): more responsive
response of gene expression to JQ1: genes associated with top 10% vs bottom 10% RNA-decorated enhancers (MM.1S cells; genes within ±50 Kb of enhancers, FIG. 13E): more responsive

Reference: patent US10984891B2, “Methods for global RNA-chromatin interactome discovery” (The Regents of the University of California, priority 2016, dated 2021)
